These results are taken from patent EP0440787B1, “COMPOUNDS OF 1,4-BIS(AMINO)BENZO(G)PHTHALAZENE” (CONSEJO SUPERIOR DE INVESTIGACIONES CIENTIFICAS, priority 1989, dated 1990).

In general, LD50 refers to the dose at which mortality reaches 50%. For orientation: pKa means the pH at which an ionisable group is half protonated.

≈ marks a conversion by molar mass, not a printed value. Read-outs that look alike come from different tables or passages of the source. Marks after values point to notes of the source that are not given here. Starred links: 1 amine or outer side, 2 acyl side, 3 side chain; linkers in the order of their positions; H or OH if unused. Positions of bridges follow the written chain, without caps; N, C: chain ends. Non-standard residues stand in square brackets, D forms with d. Residues, ends and D or L forms follow the SMILES beside them. Chains are numbered I, II in the order given. Actinocin(9to1) = Cc1c2oc3c(C)ccc(C(=O)[*:1])c3nc-2c(C(=O)[*:2])c(N)c1=O; NMeV = CN[C@H](C(=O)O)C(C)C; Sar = CNCC(=O)O

The nature of data set [1]: 50 per 100 lethal dose (LD50) of BBPh and toxicity in mice. The format is in vivo. As to conditions: DMSO as solvent.
Data set [2] relates to HeLa cell lines (from a human uterine cervix carcinoma). The data set is described as follows: Cytostatic and cytocidal activity in vitro, HeLa cell cultures. The data set is classed as cell-based. Here is the method:
(§1) The cytostatic and cytocidal activity of BBPh has been evaluated employing HeLa cell lines (from a human uterine cervix carcinoma), ADLD-clon (from a human malignant melanona) and a semicontinuos LMMB cell line (from normal human tonsilar fibroblasts).
(§2) In order to perform both "in vitro" and "in vivo" experiments a concentrated stock solution of BBPh in dimethyl sulfoxide (DMSO) was prepared. From it increasing diluted solutions in McCoy's R5aI grown medium supplemented with 5% human serum, 5% calf serum, 5% fetal bovine serum, 100 IU/mL penicillin, 100 ug/mL streptomycin and 16 ug/mL gentamycin were obtained.
(§3) Serial dilutions of BBPh and the solvent were assayed in cultures seeded 24 hours before on 96-well "Microtiter" plates. The seeding was carried out by depositing 200 µL of cell suspension in growth medium in each well, adjusted to 3 x 10^5/mL HeLa cells, 9 x 10^5/mL ADLD-clon cells or 4 x 10^5/mL LMMB cells.
(§4) The plates with different concentrations of BBPh and control solutions were incubated at 37°C in a humidily saturated air containing 5% CO2.
(§5) Then the plates were fixed and stained to stimate the effects of BBPh under the conditions described by Alvarez (1986) (11) taken Adriamycin as antitumoral compound of reference. […]

Data set [3] concerns LMMB cell line (from normal human tonsilar fibroblasts). As to the kind of experiment: Cytostatic and cytocidal activity in vitro, LMMB normal cell cultures. The data set is classed as cell-based. The following applies: Fibroblast. Here is the method: as §1, §2, §3, §4, §5
In data set [4] the test system is Trichomonas vaginalis (Srain G). The data set is described as follows: microbe, parasite or virus in culture. As to conditions: for MCC: read-out: Trichomonacidal activity MCC; for MIC: read-out: Trichomonacidal activity MIC.
Procedure: The cultures of the strains of Trichomonas vaginalis (Srain G) used as experimental model were grown in Diamond Medium (TYM) without agar (100.000 organisms/mL). […] Minimal inhibition concentration (MIC) and Minimal cytocidal concentration (MCC) were established in accordance with the definitions proposed by Escario et al. (19).
The nature of a further data set: pKa of BBPh. The format is physicochemical. The source says: Some anticancer drugs such as mitomycin C and antinomycin D which interact with nucleic acids have shown activity against Trypanosoma cruzi (16). […] Following a similar behaviour the 1,4-bis(buthylamino)benzo[g] phthalazine (BBPh) which is able to form 1,4-bis(buthylamino) benzo[g]phthalazinium cations at physiological PH (PKa of BBPh = 8.6) and is a potential intercalating agent has shown both, antineoplasic and trypanosomicide activities.

In data set [5] the test system is Ehrlich ascites cancer cells. As to the kind of experiment: In vivo antitumoral activity, subcutaneous transplant of Ehrlich ascites cancer cells in mice. The arrangement: species or system swiss mice. Here is the method: Five groups of six 2-month male swiss mice weighing 25 grams were disposed. Each animal received a transplant of 10^5 Ehrlich ascites cancer cells by the subcutaneous route in the interscapular region. Fourteen days later, when the tumors were evident and measured more than 3 millimeter in diameter, the animals were submitted to the different treatments.
Group 1 received a first intraperitoneal dose of 300 µL of DMSO followed by equal subcutaneous doses, the next three consecutive days.
Group 2 received a single intraperitoneal dose of 100 µg of BBPh solubilized in 300 µL of DMSO, followed by equal subcutaneous doses the next three consecutive days.
Group 3 received a single intraperitoneal dose of 500 µg of BBPh in 300 µL of DMSO.
Group 4 received a single intraperitoneal dose of 1.000 µg of BBPh in 300 µL of DMSO.
Group 5 received a single subcutaneous dose of 4.000 µg BBPh in an oily solution.

Data set [6] relates to ADLD-clon (from a human malignant melanona). As to the kind of experiment: Cytostatic and cytocidal activity in vitro, ADLD-clon cell cultures. The format is cell-based. Here is the method: as §1, §2, §3, §4, §5
The subject of the next data set is T. cruzi. As to the kind of experiment: Trypanosomicide activity in vitro in infected NMRI mice blood. The data set is classed as cell-based, Trypanosoma cruzi. As to conditions: 24 h at 4°C; for N° Tryp/mL: controls Cd 298, Ct 247.
The conditions of data set [7]: clinical drugs, from reference (12); cited from earlier work.
[8] abbreviates: group 5: BBPh in oily solution 1 x 4.0 mg s.c. (160 mg/kg).
[9] abbreviates: overall dose 40 mg/Kg: single i.p. dose of 1.0 mg in DMSO.

`CCCCNc1nnc(NCCCC)c2cc3ccccc3cc12` [BBPh, 1,4-bis(n-butylamino)benzo[g]phthalazine]: the toxicity result in data set [1] (i.p., single dose of 20 mg/Kg) is reported as “toxic”. For the same compound, the LD50 in data set [1] (mouse, in vivo, ip, BBPh) amounted to 12 mg/kg. In addition, the IC50 in data set [2] (concentration producing death or growth inhibition of 50% of the cells, read-out: ID50 (the source's name)) was 0.67 µg/mL (≈ 2.08 µM); in [3] (LMMB normal cells, concentration producing death or growth inhibition of 50% of the cells, read-out: ID50 (the source's name)), 1.08 µg/mL (≈ 3.35 µM); in [6] (ADLD-clon, concentration producing death or growth inhibition of 50% of the cells, read-out: ID50 (the source's name)), 0.67 µg/mL (≈ 2.08 µM). Besides, the MCC in data set [4] was 10 to 25 µg/mL. Moreover, in [4], the MIC is 5 to 10 µg/mL (≈ 15.5 to 31 µM). In addition, the pKa in the data set “pKa of BBPh” turned out to be 8.6. Also, the results for the T/S in data set [5] (group 2: BBPh in DMSO 1 x 0.1 mg i.p. + 3 x 0.1 mg s.c.) and in data set [5] (setting [8]) were 6/5 and 5/5, respectively. Further, the “SURVIVAL(DAYS) MST” value came to 84 days in data set [5] (group 2: BBPh in DMSO 1 x 0.1 mg i.p. + 3 x 0.1 mg s.c., DMSO control 59) and 86 days in [5] (setting [8]). Further, the Toxic death in data set [5] (overall dose 16 mg/Kg: 0.1 mg i.p. then similar s.c. doses next three days, DMSO) is listed as 1/6; in data set [5] (overall dose 20 mg/Kg: single i.p. dose of 0.5 mg in DMSO), 4/6; in [5] (setting [9]), 6/6. In addition, the “T/C (%)” value in [5] (overall dose 16 mg/Kg: 0.1 mg i.p. then similar s.c. doses next three days, DMSO, active when > 125%) is given as 142^f %; in [5] (overall dose 20 mg/Kg: single i.p. dose of 0.5 mg in DMSO, active when > 125%), 161^f %; in [5] (setting [9]) it was “Toxic”. In addition, the “TST” value in data set [5] (overall dose 16 mg/Kg: 0.1 mg i.p. then similar s.c. doses next three days, DMSO, control 59) was found to be 84 days; in data set [5] (overall dose 20 mg/Kg: single i.p. dose of 0.5 mg in DMSO, control 59), 96 days; in data set [5] (setting [9]), 1 days. Further, the “N° Tryp/mL” value in the data set on T. cruzi (BBPh 75 µg/mL), in the data set on T. cruzi (BBPh 125 µg/mL), in the data set with T. cruzi (BBPh 250 µg/mL), with T. cruzi (BBPh 500 µg/mL) and with T. cruzi (BBPh 1000 µg/mL) was 0 Tryp/mL throughout. Moreover, in the data set on T. cruzi (all samples, 1000 to 75 ug/mL), the parasitemia result is given as “negative parasitemia”.

As to `COc1cccc2c1C(=O)c1c(O)c3c(c(O)c1C2=O)C[C@@](O)(C(=O)CO)C[C@@H]3O[C@H]1C[C@H](N)[C@H](O)[C@H](C)O1` [Adriamycin, reference compound], the results for the IC50 in [2] (read-out: ID50), in data set [3] (read-out: ID50) and in [6] (read-out: ID50) were 0.33 µg/mL (≈ 0.607 µM), 0.07 µg/mL (≈ 0.129 µM) and 0.33 µg/mL (≈ 0.607 µM), respectively.

In the case of `COc1cccc2c1C(=O)c1c(O)c3c(c(O)c1C2=O)C[C@@](O)(C(C)=O)C[C@@H]3O[C@H]1C[C@H](N)[C@H](O)[C@H](C)O1` [Daunomycin], the LD50 in data set [7] is 9.2 mg/kg.

Turning to `Cc1ncc([N+](=O)[O-])n1CCO` [Metronidazole, reference compound], in data set [4], the MCC was 8 µg/mL and the MIC lay within 4 to 8 µg/mL (≈ 23.4 to 46.7 µM).

For `Cc1c2oc3c(C)ccc(C(=O)N[C@@H]4C(=O)N[C@H](C(C)C)C(=O)N5CCC[C@H]5C(=O)N(C)CC(=O)N(C)[C@@H](C(C)C)C(=O)O[C@@H]4C)c3nc-2c(C(=O)N[C@@H]2C(=O)N[C@H](C(C)C)C(=O)N3CCC[C@H]3C(=O)N(C)CC(=O)N(C)[C@@H](C(C)C)C(=O)O[C@@H]2C)c(N)c1=O` [Actinomicin D] (I: T[dV]P[Sar][NMeV] / II: T[dV]P[Sar][NMeV]; ester I:1-I:C, II:1-II:C; linker I:N-II:N via Actinocin(9to1)), the LD50 in data set [7] is 0.095 mg/kg.

`CC[C@]1(O)C[C@H]2CN(CCc3c([nH]c4ccccc34)[C@@](C(=O)OC)(c3cc4c(cc3OC)N(C=O)[C@H]3[C@@](O)(C(=O)OC)[C@H](OC(C)=O)[C@]5(CC)C=CCN6CC[C@]43[C@@H]65)C2)C1` [Vincristine]: the LD50 in data set [7] is 4.5 mg/kg.
